In US20260116874A1, “HETEROAROMATIC INDOLESULFONAMIDES” (SEED Therapeutics, Inc., priority 2023, published 2026):
pIC50: −log10 of the molar value. Where two headings read alike, the source gives them in different places.

Key:
[1] = Liver microsomes stability, human; type: in vitro ADME
Protocol: (§1) A 100 μM test compound solution and PC solution (verapamil) was prepared by adding 2 μL of 10 mM stock solution in DMSO to 198 μL of 50% acetonitrile/50% water.
(§2) Two separate experiments were performed as follows:
(§3) a) With Cofactors (NADPH): 25 μL of 10 mM NADPH was added to the incubations. The final concentrations of microsomes and NADPH were 0.5 mg/mL and 1 mM, respectively.
(§4) b) Without Cofactors (NADPH): 25 μL of 100 mM Phosphate buffer was added to the incubations. The final concentration of microsomes was 0.5 mg/mL. The mixture was pre-warmed at 37° C. for 10 minutes.
(§5) The reaction was started with the addition of 2.5 μL of 100 µM control compound or test compound solutions. Verapamil was used as positive control in this study. The final concentration of test compound or control compound was 1 μM. The incubation solution was incubated in a water bath at 37° C.
(§6) Aliquots of 30 μL were taken from the reaction solution at 0.5, 15, 30, 45 and 60 minutes. The reaction was stopped by the addition of 5 volumes of cold acetonitrile with IS (100 nM alprazolam, 200 nM caffeine and 100 nM tolbutamide).
(§7) Samples were then centrifuged at 3,220 g for 40 minutes. An aliquot of 100 μL of the supernatant was mixed with 100 μL of ultra-pure H2O and then used for LC-MS/MS analysis.
(§8) Single dose PK parameters were also determined for Compound 143, a deuterated derivative of Compound 1, according to the methods described herein. […] Metabolic stability was assessed by measuring the half-life of the test compounds in human and mouse liver microsomes.

[2] = Liver microsomes stability, mouse; type: in vitro ADME
Protocol: as §1, §2, §3, §4, §5, §6, §7, §8

[3] = Single dose plasma pharmacokinetics after IV and PO administration; type: in vivo, female BALB/c mice; conditions: for F: PO 20 mg/kg vs IV 1 mg/kg; for F / AUC(0-t) / Cmax / AUC(0-inf) / C0 / clearance / half-life / Vd / Tmax: female BALB/c mice; for AUC(0-t) / Cmax: female, BALB/c; for AUC(0-t) / Cmax / AUC(0-inf) / C0 / clearance / half-life / Vd / Tmax: mouse, plasma; for Vd: read-out: Vss
Protocol: Single dose PK parameters in plasma were determined following intravenous administration of compound 1 and comparative compound E7820 at 1 mg/kg by using the formulation of 10% DMSO/30% PEG400/60% Saline. The plasma samples were collected at the following time points: 0.083, 0.25, 0.5, 1, 2, 4, 8 and 24 hrs post-dose. The concentrations in plasma were determined.
Single dose PK parameters in plasma were determined following oral gavage of Compound 1 and comparative compound E7820 at 20 mg/kg by using the formulation of 0.5% MC (400 cps) and 0.1% Tween80 in water. The plasma samples were collected at the following time points: 0.25, 0.5, 1, 2, 4, 8 and 24 hrs post dose.
as §8

[4] = target: human ether-a-go-go related gene (hERG) channel (Homo sapiens, UniProt Q12809); experiment: hERG inhibition assay (SyncroPatch automated patch clamp)
Protocol: Inhibition of compounds on human ether-a-go-go related gene (hERG) channel was evaluated using a SyncroPatch 3848/384 automated patch clamp system. The SynchroPatch system is an independent method of measuring ion flux through ion channel proteins by measuring currents induced by ion flux into and out of the cell.
CHO herg-DUO cells stably expressing hERG channel were cultured in a medium containing F12 (HAM) medium, 10% FBS, 100 μg/mL penicillin-streptomycin, […] hygromycin and 100 µg/mL G418. Cells were split using TrypLE™ Express about three times a week, and maintained at about 80% confluence.
Compounds were prepared as a 50 mM stock solution in DMSO. The stock solution of each compound was serially diluted with DMSO to prepare 30 mM, 10 mM, 3.3 mM and 1.1 mM solutions. Working solutions 60 μM, 20 μM, 6.6 μM and 2.22 μM were prepared by 500-fold dilution of the […], 30 mM, 10 mM, 3.3 mM and 1.1 mM solutions, respectively using extracellular NMDG60 solution (80 mM NaCl, 60 mM N-methyl-d-glucamine, 4 mM KCl, 2 mM CaCl2, 1 mM MgCl2, 5 mM D-glucose and 10 mM HEPES).
Cells were harvested and added to SyncroPatch 384 chip (Nanion Technologies) and washed four times. Following establishment of the whole-cell voltage clamp configuration, cells were set to a holding potential of −90 mV for measured for 500 ms and currents were at 500 Hz and filtered at 3 kHz. The hERG current was elicited by depolarizing the membrane to +30 mV for 4.8 sec and the voltage was then taken back to −50 mV for 5.2 sec to remove the inactivation and measure the deactivating tail current for a sample interval of 15 s. The maximum amount of tail current size was used to determine hERG current amplitude. hERG current in the presence of test compounds was recorded for at least 5 min to reach a steady state and then 5 sweeps were captured. If a steady state was not reached within 10 minutes, the average peak current of the last 5 sweeps was substituted for the steady state value.

[5] = 1 μM, Table 3, read-out: Metabolic Stability Half-life, human
[6] = Table 6, read-out: Metabolic Stability Half-life, Human
[7] = 1 μM, Table 3, read-out: Metabolic Stability Half-life, mouse
[8] = Table 6, read-out: Metabolic Stability Half-life, Mouse
[9] = iv, 1 mg/kg, IV 1 mg/kg, read-out: AUC(0-t)
[10] = po, 20 mg/kg, AUC(0-8 hr), oral administration, Table 7
[11] = po, 20 mg/kg, PO 20 mg/kg, read-out: AUC(0-t)
[12] = po, 20 mg/kg, oral administration, Table 7

human ether-a-go-go related gene (hERG) channel, sequence (Q12809 whole entry): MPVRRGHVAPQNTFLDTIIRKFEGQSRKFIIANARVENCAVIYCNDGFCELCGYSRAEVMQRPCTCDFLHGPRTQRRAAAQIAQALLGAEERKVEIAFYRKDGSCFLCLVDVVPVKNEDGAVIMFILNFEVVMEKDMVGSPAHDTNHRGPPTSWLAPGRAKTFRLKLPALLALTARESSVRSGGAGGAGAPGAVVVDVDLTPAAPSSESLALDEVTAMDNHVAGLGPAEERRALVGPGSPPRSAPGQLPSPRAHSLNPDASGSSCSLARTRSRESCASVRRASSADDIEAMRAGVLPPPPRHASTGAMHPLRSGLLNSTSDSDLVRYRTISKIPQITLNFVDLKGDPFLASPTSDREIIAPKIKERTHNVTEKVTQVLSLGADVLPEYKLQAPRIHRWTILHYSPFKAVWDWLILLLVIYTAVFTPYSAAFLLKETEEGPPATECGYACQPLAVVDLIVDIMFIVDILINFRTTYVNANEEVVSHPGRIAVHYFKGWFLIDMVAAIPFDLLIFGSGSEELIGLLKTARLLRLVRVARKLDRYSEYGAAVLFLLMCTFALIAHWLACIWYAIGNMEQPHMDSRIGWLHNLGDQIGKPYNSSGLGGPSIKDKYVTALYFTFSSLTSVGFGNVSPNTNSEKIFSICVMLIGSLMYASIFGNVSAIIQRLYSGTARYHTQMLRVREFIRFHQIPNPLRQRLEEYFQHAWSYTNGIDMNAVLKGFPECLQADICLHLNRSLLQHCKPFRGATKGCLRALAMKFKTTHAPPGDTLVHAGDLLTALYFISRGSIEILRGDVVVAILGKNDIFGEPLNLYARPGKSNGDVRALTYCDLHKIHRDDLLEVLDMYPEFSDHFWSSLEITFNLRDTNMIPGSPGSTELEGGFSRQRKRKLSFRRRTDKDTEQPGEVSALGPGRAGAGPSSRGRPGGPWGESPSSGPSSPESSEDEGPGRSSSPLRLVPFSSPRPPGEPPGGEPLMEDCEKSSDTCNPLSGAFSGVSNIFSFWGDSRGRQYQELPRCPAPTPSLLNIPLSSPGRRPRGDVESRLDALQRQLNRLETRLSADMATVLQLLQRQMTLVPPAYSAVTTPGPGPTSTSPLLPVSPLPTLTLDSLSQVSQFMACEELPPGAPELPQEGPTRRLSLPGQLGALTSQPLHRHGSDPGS

half-life at 1 µM [1, 5] [min] | half-life at 1 µM [1, 6] [min] | half-life at 1 µM [2, 7] [min] | half-life at 1 µM [2, 8] [min] | F [3] [%] | AUC(0-t) [3, 9] [ng·h/mL] | AUC(0-t) [3, 10] [ng·h/mL] | Cmax ([3]; po, 20 mg/kg, PO 20 mg/kg) [ng/mL] | AUC(0-t) [3, 11] [ng·h/mL] | Cmax [3, 12] [ng/mL] | AUC(0-inf) ([3]; IV 1 mg/kg) [ng·h/mL] | C0 ([3]; IV 1 mg/kg) [ng/mL] | clearance ([3]; IV 1 mg/kg) [mL/min/kg] | half-life ([3]; IV 1 mg/kg) [min] | Vd ([3]; IV 1 mg/kg) [L/kg] | Tmax ([3]; PO 20 mg/kg) [min] | SMILES | pIC50 [4] | hERG inhibition compared to E7820 [4] | also measured
66.2 | 66 | 47.1 | 47 | 407 | 1860 | 62300 | 25900 | 151000 | 9850 | 1860 | 6060 | 9.4 | 40.2 | 0.201 | 140 | Cc1ncc(S(=O)(=O)Nc2ccc(C)c3c(C#N)c[nH]c23)s1 [Compound 1, N-(3-cyano-4-methyl-1H-indol-7-yl)-2-methyl-thiazole-5-sulfonamide] | < 4.30 | less inhibition | AUC(0-inf) ([3]; PO 20 mg/kg): 190000 ng·h/mL; half-life ([3]; PO 20 mg/kg): 151 min; increase in plasma AUC compared to E7820 ([3]; oral administration, compared to control compound E7820): greater than 2 fold
 | 93 |  | 67 |  |  | 107000 |  |  | 19300 |  |  |  |  |  |  | [2H]C([2H])([2H])c1ncc(S(=O)(=O)Nc2ccc(C)c3c(C#N)c[nH]c23)s1 [Compound 143, N-(3-cyano-4-methyl-1H-indol-7-yl)-2-(methyl-d3)thiazole-5-sulfonamide] | < 4.30 | less inhibition | plasma AUC compared to Compound 1 ([3]; oral administration, compared to Compound 1, in words): increase
50.7 | 51 | 28.7 | 29 | 202 | 1640 |  | 11500 | 66200 |  | 1650 | 3150 | 10.2 | 32.5 | 0.393 | 160 | Cc1ccc(NS(=O)(=O)c2cccc(C#N)c2)c2[nH]cc(C#N)c12 [Compound E7820, E7820, reference compound] | 4.32 |  | 
